Source: patent US8822513B2, “Compounds for treatment of cancer” (GTX, Inc., priority 2010, dated 2014)
Read-outs that look alike come from different tables or passages of the source.

Key:
[1] = system: three melanoma cell lines and four human prostate cancer cell lines; assay: SRB cytotoxicity, melanoma and prostate cancer cell lines (ranges and averages over the panel); format: cell-based; details: for antiproliferative activity (in words): Tables 1-3
[2] = Metabolic stability in human liver microsomes; details: for Half life in Human liver microsome: Table 20
[3] = system: LNCaP cells; assay: SRB cytotoxicity assay, LNCaP; format: cell-based, human; details: read-out: IC50 ± SEM LNCaP
Excerpt: (§1) Cells were stained with SRB solution.

[4] = system: A375 melanoma cells; assay: SRB cytotoxicity assay, A375; format: cell-based, human; details: Table 6; read-out: IC50 ± SEM A375
[5] = Metabolic stability in monkey liver microsomes; format: in vitro ADME; details: Table 20
[6] = Metabolic stability in rat liver microsomes; format: in vitro ADME; details: Table 20
[7] = Metabolic stability in mouse liver microsomes; format: in vitro ADME; details: Table 20
[8] = Metabolic stability in dog liver microsomes; format: in vitro ADME; details: Table 20
[9] = system: PC-3 cells; details: 96 h
Excerpt: as §1
Cells were stained with sulphorhodamine B (SRB) solution.

[10] = system: B16-F1 melanoma cells; assay: B16-F1 melanoma colony formation assay in soft agar; format: cell-based, mouse; details: 14 days; tested 20, 100, 500 nM
Procedure: B16-F1 melanoma cells were plated at a colony-forming density (2000 cells per well on six-well plates) on top of 0.8% base agar. Cells were grown in 0.4% agar together with DMEM medium supplemented with fetal bovine serum and an antibiotic-antimycotic solution at 37° C. in an atmosphere of 95% air and 5% CO2. […] Compounds were added to the media from 1 mM DMSO stock solutions, and a corresponding dilution of DMSO was used as control. Cells were grown for 14 days. Plates were photographed, and the number of colonies was measured by Artek 880 Automated Colony Counter (Artek Systems Corporation, Farmingdale, N.Y.).

[11] = system: microtubules in WM-164 melanoma cells; assay: Microtubule imaging (immunofluorescence), WM-164; format: cell-based, human; details: 18 h
[12] = system: PPC-1 cells; details: read-out: IC50 ± SEM PPC-1; Table 12; 96 h
Excerpt: as §1

[13] = system: DU 145 cells; assay: SRB cytotoxicity assay, DU 145; format: cell-based, human; details: Table 12; 96 h; read-out: IC50 ± SEM Du 145
Excerpt: as §1

[14] = system: HUVEC monolayers; assay: Endothelial monolayer permeability assay (FITC-dextran, transwell); details: 1, 2, 4 h
[15] = system: PC-3/TxR xenografts; format: in vivo; details: for Tumor size Start: PC-3/TxR xenograft
[16] = system: A375 melanoma xenografts; assay: In vivo efficacy, A375 melanoma xenograft in nude mice (SMART compounds); parameters: species or system mouse; details: Melanoma (A375) xenograft, 20 mg/kg i.p.
[17] = system: tubulin (colchicine, vinblastine, paclitaxel binding sites); assay: MS competitive binding assay
Excerpt: Each reaction was run in triplicate.

[18] = read-out: IC50 ± SEM PC-3, Table 12
[19] = average of all seven cell lines, read-out: average IC50

For COc1cc(C(=O)c2cccc(-c3ccccc3)c2)cc(OC)c1OC [1a, Biphenyl-3-yl(3,4,5-trimethoxyphenyl)methanone], the “antiproliferative activity (in words)” value [1] was “hundreds of nanomolar range”.
For COc1cc(C(O)c2csc(-c3ccccc3)n2)cc(OC)c1OC (stereo not drawn) [2b, (2-Phenylthiazol-4-yl)(3,4,5-trimethoxyphenyl)methanol], the “antiproliferative activity (in words)” value [1] was “inactive”.
In the case of COc1cc(/C(=N/O)c2csc(-c3ccccc3)n2)cc(OC)c1OC [2e-cis, (Z)-(2-Phenylthiazol-4-yl)(3,4,5-trimethoxyphenyl)methanone oxime], the “Half life in Human liver microsome” value [2] is reported as 35 min and the “fold more activity than anti-isomer 2e-trans” value [1] is reported as 10 fold.
In the case of COc1cc(C(=O)c2csc(-c3cc(F)c(F)c(F)c3)n2)cc(OC)c1OC [2p], the IC50 ([3]; Table 6) is reported as greater than 10 µM.
COc1cc(C(=O)c2csc(-c3ccc(CC(N)=O)cc3)n2)cc(OC)c1OC [2q] showed an IC50 ([3]; Table 6) greater than 10 µM and an IC50 [4] greater than 20 µM.
In the case of CNCc1ccc(-c2nc(C(=O)c3cc(OC)c(OC)c(OC)c3)cs2)cc1.Cl [2s, (2-(4-((Methylamino)methyl)phenyl)thiazol-4-yl)(3,4,5-trimethoxyphenyl)methanone hydrochloride], the “antiproliferative activity (in words)” value [1] is reported as “abrogated activity”.
For COc1cc(C(=O)c2csc(-c3ccc(CN(C)C)cc3)n2)cc(OC)c1OC.Cl [2u, (2-(4-((Dimethylamino)methyl)phenyl)thiazol-4-yl)(3,4,5-trimethoxyphenyl)methanone hydrochloride], the “antiproliferative activity (in words)” value [1] was “abrogated activity”.
In the case of COc1cc(/C=C\c2csc(-c3ccccc3)n2)cc(OC)c1OC [3a, (Z)-2-Phenyl-4-(3,4,5-trimethoxystyryl)thiazole], the “antiproliferative activity (in words)” value [1] is reported as “lost activity”.
With COc1cc(-c2nccc3ccc(-c4ccc5[nH]ccc5c4)cc23)cc(OC)c1OC [6a] the “Half life in Monkey liver microsome” value [5] was 16 min, the “Half life in Human liver microsome” value [2] was 32 min and the “Half life in Rat liver microsome” value [6] was 12 min. The “Half life in Mouse liver microsome” value [7] was 3.43 min and the “Half life in Dog liver microsome” value [8] was 13 min.
Compound O=S(=O)(c1ccccc1)n1ccnc1-c1ccccc1 [10a, 2-phenyl-1-(phenylsulfonyl)-1H-imidazole] has an IC50 ([9]; read-out: IC50 PC-3, Table 11) greater than 10 µM.
Compound O=S(=O)(c1ccccc1)n1ccnc1-c1ccc(OCc2ccccc2)cc1 [10j, 2-(4-(benzyloxy)phenyl)-1-(phenylsulfonyl)-1H-imidazole] has an IC50 ([9]; read-out: IC50 PC-3, Table 11) greater than 10 µM.
O=[N+]([O-])c1ccc(-c2nccn2S(=O)(=O)c2ccccc2)cc1 [10x, 2-(4-nitrophenyl)-1-(phenylsulfonyl)-1H-imidazole] showed an IC50 ([9]; read-out: IC50 PC-3, Table 11) greater than 10 µM.
For COc1cc(C(=O)n2ccnc2-c2ccccc2)cc(OC)c1OC [12aaa, (2-phenyl-1H-imidazol-1-yl)(3,4,5-trimethoxyphenyl)methanone], the IC50 ([9]; read-out: IC50 PC-3, Table 11) was greater than 10 µM.
With COc1ccc(C(=O)n2ccnc2-c2ccccc2)cc1 [12aba, (4-methoxyphenyl)(2-phenyl-1H-imidazol-1-yl)methanone] the IC50 ([9]; read-out: IC50 PC-3, Table 11) was greater than 10 µM.
In the case of COc1ccc(C(=O)c2c[nH]c(-c3ccccc3)n2)cc1OC [12ae, (3,4-dimethoxyphenyl)(2-phenyl-1H-imidazol-4-yl)methanone], the IC50 ([9]; read-out: IC50 PC-3, Table 11) is reported as greater than 10 µM.
Work on O=C(c1cccc(F)c1)c1c[nH]c(-c2ccccc2)n1 [12ag, (3-fluorophenyl)(2-phenyl-1H-imidazol-4-yl)methanone] yielded an IC50 ([9]; read-out: IC50 PC-3, Table 11) greater than 10 µM.
With COc1ccc(-c2nc(C(=O)c3ccc(F)cc3)c[nH]2)cc1 [12cb, (4-fluorophenyl)(2-(4-methoxyphenyl)-1H-imidazol-4-yl)methanone] the “lowest tested concentration with effective inhibition of colony formation” value [10] was 20 nM and the effect on microtubules [11] was “microtubule fragmentation”.
For COc1cc(C(=O)c2c[nH]c(-c3ccc(C)cc3)n2)cc(OC)c1OC [12da, (2-(p-tolyl)-1H-imidazol-4-yl)(3,4,5-trimethoxyphenyl)methanone], the “lowest tested concentration with effective inhibition of colony formation” value [10] was 20 nM and the effect on microtubules [11] was “microtubule fragmentation”.
Work on COc1cc(C(=O)c2c[nH]c(-c3cc(OC)c(OC)c(OC)c3)n2)cc(OC)c1OC [12ea, (3,4,5-trimethoxyphenyl)(2-(3,4,5-trimethoxyphenyl)-1H-imidazol-4-yl)methanone] yielded an IC50 ([3]; Table 12, 96 h) greater than 10 µM, an IC50 [12] greater than 10 µM and an IC50 [9, 18] greater than 10 µM. For the same compound, the IC50 [13] was greater than 10 µM and the IC50 [1, 19] was greater than 10 µM.
Compound COc1cc(-c2nc(C(=O)c3ccc(F)cc3)c[nH]2)cc(OC)c1OC [12eb, (4-fluorophenyl)(2-(3,4,5-trimethoxyphenyl)-1H-imidazol-4-yl)methanone] has an IC50 ([3]; Table 12, 96 h) greater than 10 µM, an IC50 [12] greater than 10 µM and an IC50 [9, 18] greater than 10 µM. The IC50 [13] was greater than 10 µM and the IC50 [1, 19] was greater than 10 µM.
In the case of O=C(c1ccc(F)cc1)c1c[nH]c(-c2ccc(Cl)cc2)n1 [12fb, (2-(4-chlorophenyl)-1H-imidazol-4-yl)(4-fluorophenyl)methanone], the “lowest tested concentration with effective inhibition of colony formation” value [10] is reported as 100 nM.
In the case of O=C(c1ccc(F)cc1)c1c[nH]c(-c2ccccc2C(F)(F)F)n1 [12ib, (4-fluorophenyl)(2-(2-(trifluoromethyl)phenyl)-1H-imidazol-4-yl)methanone], the IC50 [1, 19] is reported as greater than 10 µM.
With O=C(c1ccc(F)cc1)c1c[nH]c(-c2ccc(OCc3ccccc3)cc2)n1 [12jb, (2-(4-(benzyloxy)phenyl)-1H-imidazol-4-yl)(4-fluorophenyl)methanone] the “increase in activity compared with 12kb” value [1] was 440 fold.
For COc1cc(C(=O)c2c[nH]c(-c3ccc(Br)cc3)n2)cc(OC)c1OC [12la, (2-(4-bromophenyl)-1H-imidazol-4-yl)(3,4,5-trimethoxyphenyl)methanone], the IC50 ([1]; Homo sapiens, text on Tables 1, 2, 13, read-out: IC50 (range over cell lines)) was 1 to 50 µM.
In the case of O=C(c1cc(O)c(O)c(O)c1)c1c[nH]c(-c2cc(O)c(O)c(O)c2)n1 [13ea, (3,4,5-trihydroxyphenyl)(2-(3,4,5-trihydroxyphenyl)-1H-imidazol-4-yl)methanone], the IC50 ([3]; Table 12, 96 h) is reported as greater than 10 µM, the IC50 [12] is reported as greater than 10 µM and the IC50 [9, 18] is reported as greater than 10 µM. For the same compound, the IC50 [13] was greater than 10 µM.
O=C(c1cc(O)c(O)c(O)c1)c1c[nH]c(-c2ccc(Cl)cc2)n1 [13fa, (2-(4-chlorophenyl)-1H-imidazol-4-yl)(3,4,5-trihydroxyphenyl)methanone] showed an IC50 [12] greater than 10 µM.
With COc1cc(C(=O)[C@H]2COC(c3ccccc3)=N2)cc(OC)c1OC [35a, (2R)-(2-Phenyl-4,5-dihydro-oxazol-4-yl)-(3,4,5trimethoxy-phenyl)-methasone] the “antiproliferative activity (in words)” value [1] was “hundreds of nanomolar range”.
For COc1cc(C(=O)c2coc(-c3ccccc3)n2)cc(OC)c1OC [36a, (2-Phenyl-oxazol-4-yl)-(3,4,5-trimethoxy-phenyl)-methanone], the “antiproliferative activity (in words)” value [1] was “hundreds of nanomolar range”.
With COc1ccc(S(=O)(=O)Nc2cccnc2Nc2ccc(O)cc2)cc1 [ABT-751, reference compound] the effect on microtubules [11] was “microtubule fragmentation”.
For COc1ccc(/C=C\c2cc(OC)c(OC)c(OC)c2)cc1O [CA4, Combretastatin A-4], the “permeability of endothelial cell monolayer” value (“permeability” below) [14] was “increased permeability”.
For CC(=O)O[C@@]12CO[C@@H]1C[C@H](O)[C@@]1(C)C(=O)[C@H](O)C3=C(C)[C@@H](OC(=O)[C@H](O)[C@@H](NC(=O)OC(C)(C)C)c4ccccc4)C[C@@](O)([C@@H](OC(=O)c4ccccc4)[C@H]21)C3(C)C [Docetaxel, reference compound], the “Tumor size Start” value ([15]; IV 10 mpk, day 1 and 9, end point day 19) was 143 ± 20 mm^3.
In the case of COc1cccc2c1C(=O)c1c(O)c3c(c(O)c1C2=O)C[C@@](O)(C(=O)CO)C[C@@H]3O[C@H]1C[C@H](N)[C@H](O)[C@H](C)O1 [Doxorubicin], the “permeability” value [14] is reported as “did not induce any change”.
With COc1cc(C(=O)c2csc(-c3ccccc3)n2)cc(OC)c1OC [SMART-H] the T-C [16] was 10 days and the “Total log cell kill” value ([16]; doubling time 4.6 d) was 0.7.
With COc1cc(C(=O)c2csc(Nc3ccc4[nH]ccc4c3)n2)cc(OC)c1OC [compound 55, (2-(1H-indol-5-yl amino)thiazol-4-yl)(3,4,5-trimethoxyphenyl)methanone] the “permeability” value [14] was “increased permeability”, the “Half-life in HLM (Phase I)” value ([2]; Table 16B, Phase I) was 30 min and the “Half-life in HLM (Phase I + II)” value ([2]; Table 16B, Phase I + II (UDP-glucuronic acid present)) was 43 min. For the same compound, the “competition with colchicine-tubulin binding” value [17] was “competed effectively with colchicine”, the “Tumor size Start” value ([15]; PO 10 mpk, b.i.d × 5/w, end point day 26) was 143 ± 44 mm^3 and the “Tumor size Start” value ([15]; PO 30 mpk, b.i.d × 5/w, end point day 26) was 134 ± 34 mm^3. The TGI ([15]; p.o. 30 mg/kg b.i.d., five times a week, day 19 to 26) was greater than 100%.
